Read-outs that look alike come from different tables or passages of the source.
Legend:
[1] = test system: Human Monocytes; assay: TNF-α synthesis by human monocyte monolayers stimulated with glucan preparations (ELISA); assay type: cell-based; conditions: for TNF-α / TNF-α Mean ± SD: glucan 1 mg/ml; for TNF-α Mean ± SD: Table 3; for TNF-α stimulation (in words): human monocytes, Tables 3 and 4
Source text: Human peripheral blood mononuclear cells were isolated (Janusz et al., (1987), J. Immunol., 138: 3897-3901) from normal citrated and dextran-treated blood, washed in Hank's balanced salts solution (HBSS), lacking calcium, magnesium, and phenol red, and purified by gradient centrifugation on cushions of Ficoll-Paque (Pharmacia Fine Chemicals, Piscataway, N.J.). The mononuclear cells were collected into HBSS, washed twice, resuspended in RPMI 1640 Medium (Gibco, Grand Island, N.Y.) containing 1% heat-inactivated autologous serum (56° C. for 30 min.), and counted on the Coulter counter.
For the preparation of monocyte monolayers, 1 ml of 2.2×10^6 mononuclear cells/ml was plated into wells of 24-well tissue culture plates (CoStar, Cambridge, Mass.), incubated for 1 h at 37° C. in a humidified atmosphere of 5% CO2, and washed three times with RPMI to remove nonadherent cells. A second 1 ml aliquot of 2.2×10^6 mononuclear cells/ml was layered into each well and incubated for 2 hours as described above before removal of the nonadherent cells. By visual enumeration at 40× with an inverted phase microscope and a calibrated reticule, the number of adherent cells for 30 different donors was 0.77±0.20×10^6 per well (mean±SD). By morphology and nonspecific esterase staining, >95% of the adherent cells were monocytes.
Monocyte monolayers were incubated at 37° C. in the CO2 chamber for 0 to 8 h with 0.5 ml of RPMI, 1% heat-inactivated autologous serum, 10 mM HEPES, and 5 mM MgCl2 in the absence and presence of various glucan preparations. The culture supernatant was removed, clarified by centrifugation at 14,000 g for 5 min at 4° C., and stored at -70° C. before assay of cytokines.
The data are expressed as pg per 10^6 monocytes, which was calculated by dividing the quantity of cytokine in 0.5 ml of supernatant by the number of monocytes per well.

[2] = test system: β-glucan receptor on human monocytes; assay: Avidity for the glucan receptor: inhibition of monocyte ingestion of zymosan particles; assay type: cell-based; conditions: for % Inhibition of monocyte ingestion: mean of two experiments
Procedure: Monolayers of human monocytes, prepared on siliconized glass coverslips (Czop et al., 1978, J. […] The monocyte monolayers were then washed twice with 50 ml of RPMI 1640 medium and were layered with 0.25 ml of 4.8×10^6 /ml zymosan particles (Czop and Austen, 1985, J. Immunol., 134:2588-2593). After a 30 minute incubation at 37° C., the monolayers were washed three times with 50 ml of Hank's balanced salt solution to remove noningested zymosan particles. The monolayer were then fixed and stained with Giemsa. The ingestion of zymosan particles by at least 300 monocytes per monolayer was determined by visual observation under a 1000× light microscope.
The percent inhibition of monocyte ingestion was determined by subtracting the percentage of monocytes ingesting targets after pretreatment with the neutral soluble glucan from the percentage ingesting targets after pretreatment with buffer, dividing this number by the percentage ingesting targets after pretreatment with buffer and multiplying by 100.

[3] = test system: Human Peripheral Blood Mononuclear Cells (IL-1β); assay: In vitro IL-1β synthesis by human peripheral blood mononuclear cells (radioimmunoassay), stimulation and priming; assay type: cell-based; conditions: for IL-1β: 24 hours, mean of two donors
Procedure: (§1) Venous blood was obtained from healthy male volunteers and mononuclear cells were fractionated by Ficoll-Hypaque centrifugation. The mononuclear cells were washed, resuspended in endotoxin-free RPMI-1640 culture medium ultrafiltered to remove endotoxins as described elsewhere (Dinarello et al., 1987, J. Clin. Microbiol. 25:1233-8) at a concentration of 5×10^6 cells/ml and were aliquoted into 96-well microtiter plates (Endres et al., 1989, N. E. J. Med. 320:265-271). The cells were then incubated with either 1 ng/ml endotoxin (lipopoly-saccharide, E. coli 055:B5, Sigma, St. Louis), or 10 to 1000 ng/ml PGG, at 37° C. for 24 hours in 5% CO2 and then lysed by three freeze-thaw cycles (Endres et al., 1989, N. E. J. Med. 320:265-271). Synthesis of IL-1β and TNFα were determined by specific radioimmunoassays as described elsewhere (Lisi et al., 1987, Lymph Res. 6:229-244; Lonnemann et al., 1988, Lymph. Res. 7:75-84; Van der Meer et al., 1988, J. Leukocycte Biol. 43:216-223.
(§2) To determine if neutral soluble glucan could act as a priming agent for cytokine synthesis with endotoxin, a known cytokine stimulant, mononuclear cells were pre-incubated with 1, 10, and 1000 ng/ml underivatized, aqueous soluble β-glucan for 3 hours at 37° C. in 5% CO2. The cells were washed to remove neutral soluble glucan and were then incubated with 1 ng/ml endotoxin as described above. IL-1β and TNFα were determined as described above.

[4] = test system: Human Peripheral Blood Mononuclear Cells (TNFα); assay: In vitro TNFα synthesis by human peripheral blood mononuclear cells (radioimmunoassay), stimulation and priming; assay type: cell-based; conditions: for TNFα: 24 hours, mean of two donors
Procedure: as §1, §2

[5] = test system: polymicrobic infectious challenge (cecal inoculum); assay: Rat model for intra-abdominal sepsis; assay type: in vivo; conditions: rats
[6] = human, in vivo, iv
Procedure: (§3) A randomized, double-blind, placebo-controlled clinical trial was conducted on healthy males to evaluate the safety of neutral soluble glucan (2.25 mg/kg) injected by intravenous infusion compared to a placebo control. […] The results are consistent with the in vitro data reported in the earlier examples.

[7] = test system: IL-1, TNF, IL-6, IL-8 and GM-CSF; assay: Clinical trial in healthy males: serum cytokines; assay type: in vivo, human
Procedure: as §3

[8] = test system: neutrophils; assay: Clinical trial in healthy males: absolute neutrophil counts; assay type: in vivo, human; conditions: 2.5 mg/kg, N 6
[9] = test system: monocytes; assay: Clinical trial in healthy males: monocyte counts; assay type: in vivo, human; conditions: 2.5 mg/kg, N 6
[10] = test system: monocytes and neutrophils (killing activity); assay: Ex vivo microbicidal activity of normal volunteers; assay type: in vivo, human; conditions: 2.5 mg/kg, normalized with respect to the saline control, N 6
[11] = test system: full thickness wounds; assay: Wound healing, full thickness wound in hairless mice; assay type: in vivo, mouse
Procedure: Wound healing studies were performed on hairless mouse models having full thickness wounds with and without Staphylococcus aureus infection.
Incisions were closed using steel clips at 1 cm intervals.
[…] Two micrograms of neutral soluble glucan/mouse per day was topically applied. Wounds were examined daily and rank-ordered for effectiveness of formulation for enhancement of visual based wound healing each day. Wounds were scored for closure on a scale of 0-5, with 5 indicating the most healing. In one group of mice that served as the infection model, the wound was treated with a culture of 10^7 Staphylococcus aureus 30 minutes after wounding and 2 hrs prior to treatment with the neutral soluble glucan formulation.
Histological evaluation of the wound site of each test group was made. The dermis of the control group (untreated wound) was heavily infiltrated with both lymphocytes and monocytes/macrophages. However, re-epithelialization that occurred at the epidermal layer was incomplete.

[12] = test system: Staphylococcus aureus; assay: Wound healing, full thickness wound infected with Staphylococcus aureus in hairless mice; assay type: in vivo, mouse; conditions: wound treated with 10^7 Staphylococcus aureus; topical
Procedure: Wound healing studies were performed on hairless mouse models having full thickness wounds with and without Staphylococcus aureus infection. […] Incisions were closed using steel clips at 1 cm intervals. Formulations of neutral soluble glucan in phosphate buffered saline were applied 30 minutes following wounding and reapplied at 24 hour intervals during the seven day post-operative period. Two micrograms of neutral soluble glucan/mouse per day was topically applied. Wounds were examined daily and rank-ordered for effectiveness of formulation for enhancement of visual based wound healing each day. Wounds were scored for closure on a scale of 0-5, with 5 indicating the most healing. In one group of mice that served as the infection model, the wound was treated with a culture of 10^7 Staphylococcus aureus 30 minutes after wounding and 2 hrs prior to treatment with the neutral soluble glucan formulation.

[13] = test system: platelets; assay: Platelet count in irradiated mice; assay type: in vivo, mouse; conditions: single IV bolus 20 hours prior to 7.5-Gy total-body irradiation, fourteen days after irradiation, FIG. 7
Procedure: The platelet proliferation stimulatory effect of the neutral soluble glucan was tested in an animal model system following irradiation or administration of the chemotherapeutic agent cisplatin.
More specifically, neutral soluble glucan prepared as described in Example 1 was administered to groups of 10 mice in a single IV bolus 20 hours prior to radiation exposure. Mice were bilaterally exposed to a total-body irradiation of 7.5-Gy. Fourteen days after irradiation the mice were sacrificed and whole blood samples were analyzed for peripheral blood counts.

[14] = water
[15] = pre-incubation 10-1000 ng/ml, then endotoxin as co-stimulant
[16] = mice treated topically for three days, in phosphate buffered saline

Laminarin [reference compound]
TNF-α ([1]; Table 3, column 1): 372 pg/10^6 monocytes | TNF-α ([1]; Table 3, column 2): 324 pg/10^6 monocytes | TNF-α ([1]; Table 3, column 3): 227 pg/10^6 monocytes | TNF-α Mean ± SD [1]: 308 ± 74 pg/10^6 monocytes | TNF-α ([1]; Table 4): 1312 pg/10^6 monocytes | TNF-α stimulation (in words) [1]: stimulated

poly-(1-6)-β-D-glucopyranosyl-(1-3)-β-D-glucopyranose [Neutral soluble glucan]
TNF-α ([1]; Table 3, column 1): 44 pg/10^6 monocytes | TNF-α ([1]; Table 3, column 2): 51 pg/10^6 monocytes | TNF-α ([1]; Table 3, column 3): 33 pg/10^6 monocytes | TNF-α Mean ± SD [1]: 43 ± 9 pg/10^6 monocytes | TNF-α ([1]; Table 4): 16 pg/10^6 monocytes | TNF-α stimulation (in words) [1]: no stimulation of TNF-α | receptor binding capacity (in words) ([2]; 50 μg/ml and 500 μg/ml): higher receptor binding capacity than Peak B | % Inhibition of monocyte ingestion ([2]; 50 μg/ml): 74% | % Inhibition of monocyte ingestion ([2]; 500 μg/ml): 86% | priming of IL-1β synthesis compared to endotoxin alone (in words) [3, 15]: did not result in any amplification | IL-1β ([3]; stimulant 10 ng/ml): 0.13 ng/mL | IL-1β ([3]; stimulant 100 ng/ml): 0.12 ng/mL | IL-1β ([3]; stimulant 1000 ng/ml): < 0.10 ng/mL | IL-1β synthesis over control buffer treated cells (in words) ([3]; used alone as stimulant): did not induce increased levels | priming of TNFα synthesis compared to endotoxin alone (in words) [4, 15]: did not result in any amplification | TNFα ([4]; stimulant 10 ng/ml): 0.16 ng/mL | TNFα ([4]; stimulant 100 ng/ml): 0.16 ng/mL | TNFα ([4]; stimulant 1000 ng/ml): 0.14 ng/mL | TNFα synthesis over control buffer treated cells (in words) ([4]; used alone as stimulant): did not induce increased levels | protection from lethal bacterial challenge (in words) [5]: protects rats from lethal bacterial challenge | Mortality (dead/total) ([5]; 100 μg/0.2 ml intramuscularly 24 hours and 4 hours prior to challenge, P vs. Saline <0.01): 2/10 | fever or inflammatory reactions [6]: none of the patients experienced fever or inflammatory reactions | adverse effects ([6]; 2.25 mg/kg): No adverse effects were observed | elevation in IL-1, TNF, IL-6, IL-8 and GM-CSF ([7]; 2.25 mg/kg intravenous infusion): no observed elevation | changes in serum IL-1 and TNF ([7]; over time, FIGS. 5 and 6): no changes occurred | Absolute Neutrophil Counts, Mean ([8]; B = Baseline measurement): 4.11 × 1000/μl | Absolute Neutrophil Counts, Mean ([8]; Hour 8): 11.29 × 1000/μl | Absolute Neutrophil Counts, Mean ([8]; Hour 12): 8.18 × 1000/μl | Absolute Neutrophil Counts, Mean ([8]; Hour 24): 5.32 × 1000/μl | Monocyte Counts, Mean ([9]; B = Baseline measurement): 0.24 × 1000/μl | Monocyte Counts, Mean ([9]; Hour 8): 0.63 × 1000/μl | Monocyte Counts, Mean ([9]; Hour 12): 0.67 × 1000/μl | Monocyte Counts, Mean ([9]; Hour 24): 0.31 × 1000/μl | Mean Change in % Killing ([10]; Day 2): 48.96% | Mean Change in % Killing ([10]; Day 3): 39.22% | Mean Change in % Killing ([10]; Day 6): 31.17% | Mean Change in % Killing ([10]; Hour 3): 42.86% | Mean Change in % Killing ([10]; Hour 6): 32.33% | Mean Change in % Killing ([10]; Hour 24): 20.90% | histology of wounded tissue: cell infiltration [11, 16]: heavy infiltration of macrophages and lymphocytes | histology of wounded tissue: tissue integrity [11, 16]: Tissue integrity was good | wound healing (in words) ([11]; topically applied, two micrograms/mouse per day): accelerated wound healing within the dermal layer of the wound | infection of the wound (in words) [12]: effectively eliminated infection | progression to sepsis (in words) [12]: prevented the progression to sepsis | platelet cell count relative to saline treated control levels [13]: ~3 fold | aqueous solubility [14]: approximately 100 mg/ml | aqueous solubility ([14]; pH 13): ~150 mg/mL
